We go through 1 compound from patent US10888569B1, “Methods and compositions for treating cancer” (THE UNIVERSITY OF CHICAGO, priority 2017, dated 2021).

In test [1] the test system is BACH1-enriched TNBC PDX tumor. The experiment in a line: Patient-derived xenograft (PDX) model treated with hemin and metformin. Format: in vivo, mouse. As to conditions: hemin 50 mg/kg/day i.p. and/or metformin 300 mg/kg/day; SCID-BEIGE mice. Here is the method:
(§1) For a patient-derived xenografts (PDX) model, frozen PDX tumors in 0.5 ml of sterile HBSS were prepared in a volume of 10-20 mm^3. In brief, tumor fragments were implanted into the mammary fat pads of 5 weeks old SCID-Beige mice following standard procedures. […] Tumor volume was measured by caliper weekly. Tumor weight was measured at the end of drug treatment. Tumor size was shown as mean+/_s.e.m. with significance (p-value) by paired Student's t-test. All the animals were also monitored regularly for body weights.
A general note: A xenograft is tissue or cells of one species grown in another, often human tumour cells in immunodeficient mice.

Test [2] addresses T1, BACH1 (Homo sapiens, UniProt O14867).
T1 sequence (O14867 1-736): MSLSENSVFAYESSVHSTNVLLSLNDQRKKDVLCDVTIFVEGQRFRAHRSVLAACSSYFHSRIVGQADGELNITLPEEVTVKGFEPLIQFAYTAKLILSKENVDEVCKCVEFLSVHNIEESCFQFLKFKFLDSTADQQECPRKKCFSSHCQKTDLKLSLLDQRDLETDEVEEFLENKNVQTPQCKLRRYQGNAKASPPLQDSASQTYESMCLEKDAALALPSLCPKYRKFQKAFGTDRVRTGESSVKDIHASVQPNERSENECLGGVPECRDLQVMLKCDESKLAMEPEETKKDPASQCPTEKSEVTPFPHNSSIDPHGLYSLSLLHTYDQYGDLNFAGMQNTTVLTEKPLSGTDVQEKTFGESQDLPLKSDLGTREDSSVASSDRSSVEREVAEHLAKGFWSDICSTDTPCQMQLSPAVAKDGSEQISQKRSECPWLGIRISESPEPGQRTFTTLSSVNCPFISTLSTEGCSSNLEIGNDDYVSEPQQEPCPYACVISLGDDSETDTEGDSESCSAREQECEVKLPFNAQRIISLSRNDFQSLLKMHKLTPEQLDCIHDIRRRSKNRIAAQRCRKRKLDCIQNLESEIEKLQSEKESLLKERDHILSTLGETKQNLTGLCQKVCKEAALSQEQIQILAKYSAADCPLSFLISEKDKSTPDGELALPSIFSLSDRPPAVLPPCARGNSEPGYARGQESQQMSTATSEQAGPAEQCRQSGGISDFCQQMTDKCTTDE
The experiment in a line: Immunoblotting of PDX tumor lysates: BACH1. It is filed as in vivo, mouse. Set-up: BACH1 protein blots using tumor lysates from representative mice of different TNBC models; from tissue; host or cells: TNBC patient-derived xenograft tumour in mammary fat pad of SCID-Beige mice. The note with it: following hemin treatment. Here is the method:
(§2) Whole cell lysates were prepared using RIPA buffer (Sigma) with protease inhibitor cocktails (1:100 ThermoFisher) and phosphatase inhibitors (SimpleStop1, Gold Biotechnology) at 4° C. and quantified using Bradford assays for western blotting using antibodies against BACH1 (sc-271211; Santa Cruz), and alpha-TUBULIN (sc-28199; Santa Cruz). Blots were imaged and processed using a Licor Odyssey Fc, dual-mode imaging system (Licor).
as §1

Test [3] addresses T1, BACH1. The experiment in a line: Immunoblotting of BACH1 in cell lysates after hemin. Format: cell-based. Set-up: Protein blots of BACH1 levels in BM1 and MB436 cells treated with Hemin for 4 or 24 hours; endogenous in cells; host or cells: BM1 (MDA-MB-231 derivative), MDA-MB-436, BT549. As for the experimental part: as §2
For orientation: A western blot detects proteins with antibodies after separation by electrophoresis.

In another test the test system is MB436 xenograft tumors. The note with it: hemin 50 mg/kg/day i.p. 10 consecutive days prior to metformin 200 mg/kg.
The next test deals with pPDH (Ser293). The experiment in a line: Immunoblotting of PDX tumor lysates: pPDH (Ser293). It is filed as in vivo, mouse. The note with it: following hemin treatment.
Another test deals with HMOX1. The experiment in a line: Real-time quantitative PCR of HMOX1. Format: cell-based, human. The note with it: hemin 20 μM, 48 hours; BM1 and MB436 cells. As for the experimental part: Total RNA from cells and tumor samples was isolated using Trizol (Invitrogen) according to the manufacturer's instructions. Two μg of RNA was adapted for reverse transcriptase PCR (Applied Biosystem) to generate cDNA. Real-time PCR was carried out using LightCycler 96 (Roche) and a Fast Start Essential DNA master mix (2×) reagent. Cq values normalized relative to the expression of endogenous control genes using 2^(−ΔΔCq) were plotted.

Description for MB436 xenograft tumors: Two million human breast cancer cells (MDA-MB-436-shCont, MDA-MB-436-shBACH1, BM1-shBACH1, or BM1-shCont) in 100 μl PBS were injected into the mammary fat pads of 5 to 6 weeks old athymic nude female mice (Charles River Laboratories). When tumors were about 20-30 or 50 mm^3 in volume, hemin (50 mg/kg/day) or vehicle (20 mM NaOH in phosphate buffered saline) was injected intraperitoneally for 10 days prior to metformin treatment for 8 weeks. Metformin (200 mg/kg for MDA-MB-436 cells or 300 mg/kg for BM1-cells) was provided in drinking water ad libidum. Tumor growth was monitored weekly by caliper measurement in two dimensions to generate ellipsoid volumes using an equation of vol.=0.4×(L×W^2).

With `C=CC1=C(C)c2cc3[n-]c(cc4[n-]c(cc5nc(cc1n2)C(C)=C5C=C)c(C)c4CCC(=O)O)c(CCC(=O)O)c3C.[Cl-].[Fe+3]` [hemin, Chloro[3,7,12,17-tetramethyl-8,13-divinylporphyrin-2,18-dipropanoato(2-)]iron(III)], the “PDX tumor volume, weight, size compared to controls” value in test [1] is recorded as “considerable reduction in tumor volumes”. Also, the “BACH1 protein expression in PDX tumors” value on BACH1 [2] was “depleted”. The BACH1 levels entry at BACH1 [3] (20 μM hemin, cultured TNBC cells) is reported as “effective at reducing BACH1 levels”; at BACH1 [3] (hemin 10-80 μM, TNBC cells), “effective at reducing BACH1 levels”. Moreover, the “breast tumor growth / volume” value with MB436 xenograft tumors was “neither hemin nor metformin alone significantly altered tumor growth”. Further, the “pPDH (Ser293) protein expression in PDX tumors” value in the test with pPDH (Ser293) is “depleted”. Also, in the test with HMOX1, the HMOX1 expression result is given as “increased”.
